Consider 42 compounds from article PMC11187573, “Identification of SARS-CoV-2 Mpro inhibitors through deep reinforcement learning for de novo drug design and computational chemistry approaches” (RSC Medicinal Chemistry, 2024).

For experiment [1], the system named is SARS-CoV-2 main protease. Type of experiment: biochemical. The conditions noted are these: Docking validation set, class assigned from COVID Moonshot IC50.
Experiment [2] deals with SARS-CoV-2 main protease. To be noted: cited from earlier work; for IC50: Docking_validation.csv, ref COVID Moonshot, read-out: f_avg_IC50; for f_avg_pIC50: Covid_Moonshot_activity_data.csv, ref COVID Moonshot (covid.postera.ai).
For experiment [3], the system named is SARS, SARS-CoV-2 and MERS Mpro. The conditions noted are these: Origin COVID_Moonshot; ref COVID Moonshot; cited from earlier work.
The next experiment has as its system Mpro. To be noted: ML dataset, Origin COVID_Moonshot; ref COVID Moonshot; cited from earlier work.

Turning to `Cn1ccc(C(=O)NC[C@@H]2CCCO2)n1` [AAR-POS-0daf6b7e-23, Cn1ccc(C(=O)NC[C@@H]2CCCO2)n1], the “label (active / inactive)” value in the experiment with SARS-CoV-2 main protease [1] is “inactive”.
In the case of `Cc1ccncc1CC(=O)Nc1cccc2c1CNCC2` [ADA-UCB-6c2cb422-3, Cc1ccncc1CC(=O)Nc1cccc2c1CNCC2], in the experiment with SARS-CoV-2 main protease [1], the “label (active / inactive)” value is “inactive”.
For the compound `NCc1cn(CC(=O)N(CC(=O)N2CCNCC2)c2ccc(-c3ccccc3)cc2)nn1` [ALP-POS-c0c213c9-7, NCc1cn(CC(=O)N(CC(=O)N2CCNCC2)c2ccc(-c3ccccc3)cc2)nn1], the “label (active / inactive)” value with SARS-CoV-2 main protease [1] was “inactive”.
As to `Cn1ccc(CN(C(=O)Cc2cccnc2)c2ccc(-c3ccccn3)cc2)n1` [ALP-POS-c0c213c9-14, Cn1ccc(CN(C(=O)Cc2cccnc2)c2ccc(-c3ccccn3)cc2)n1], the “label (active / inactive)” value in the experiment with SARS-CoV-2 main protease [1] was “inactive”.
On the same count and under the same terms, the entry for `O=C(Cn1nnc2ccccc21)N(Cc1ccccn1)c1ccc(-n2cnnc2)cc1` [ALP-POS-c0c213c9-18, O=C(Cn1nnc2ccccc21)N(Cc1ccccn1)c1ccc(-n2cnnc2)cc1] is “inactive”.
With `Cc1ccn2c(-c3ccc4[nH]ncc4c3)c(-c3ccc(F)cc3)nc2c1` [ALV-UNI-7ff1a6f9-14, Cc1ccn2c(-c3ccc4[nH]ncc4c3)c(-c3ccc(F)cc3)nc2c1], the “label (active / inactive)” value with SARS-CoV-2 main protease [1] is “inactive”.
Consider `CC(=O)N1CCN(CC(=O)Nc2cnccc2C)CC1` [BEN-DND-93268d01-8, CC(=O)N1CCN(CC(=O)Nc2cnccc2C)CC1], for which the “label (active / inactive)” value in the experiment with SARS-CoV-2 main protease [1] is “inactive”.
In the case of `O=C(Nc1nncn1C1CC1)C1CCOc2c(F)cccc21` (centres unmarked) [BRU-THA-a358fbdd-7, O=C(Nc1nncn1C1CC1)C1CCOc2c(F)cccc21], the “label (active / inactive)” value in the experiment with SARS-CoV-2 main protease [1] is “inactive”.
For `O=C(COc1ccccc1F)Nc1ncnc2[nH]cnc12` [COM-UCB-8c7d23dc-1, O=C(COc1ccccc1F)Nc1ncnc2[nH]cnc12], the “label (active / inactive)” value in the experiment on SARS-CoV-2 main protease [1] is “inactive”.
As for `Cc1[nH]c2ncnc(NC(=O)c3cc4ccccc4c(=O)o3)c2c1C` [COM-UCB-8c7d23dc-12, Cc1[nH]c2ncnc(NC(=O)c3cc4ccccc4c(=O)o3)c2c1C], the “label (active / inactive)” value in the experiment on SARS-CoV-2 main protease [1] is “inactive”.
For `O=C(Nc1c[nH]nc1-c1ccccn1)c1cccc2nccn12` [COM-UCB-8c7d23dc-15, O=C(Nc1c[nH]nc1-c1ccccn1)c1cccc2nccn12], in the experiment on SARS-CoV-2 main protease [1], the “label (active / inactive)” value is “inactive”.
As to `Cc1ccncc1NC(=O)N(C)c1cccc(Cl)c1` [EDG-MED-0da5ad92-3, Cc1ccncc1NC(=O)N(C)c1cccc(Cl)c1], the “label (active / inactive)” value in the experiment with SARS-CoV-2 main protease [1] is “inactive”.
Still for that read-out and setting: the entry for `O=C(Nc1nncn1C1CC1)C1CCOc2ccccc21` (centres unmarked) [EDJ-MED-0e996074-1, O=C(Nc1nncn1C1CC1)C1CCOc2ccccc21] is “inactive”.
Take `O=C(Cc1cccc(Cl)c1)Nc1cnnc2ccccc12` [EDJ-MED-50fe53e8-2, O=C(Cc1cccc(Cl)c1)Nc1cnnc2ccccc12]: in the experiment on SARS-CoV-2 main protease [1], the “label (active / inactive)” value is “inactive”.
Regarding `O=C(Nc1nncn1C1CC1)C1CCOc2ccc(Cl)cc21` (centres unmarked) [JAG-UCB-a3ef7265-20, O=C(Nc1nncn1C1CC1)C1CCOc2ccc(Cl)cc21], the “label (active / inactive)” value in the experiment on SARS-CoV-2 main protease [1] was “inactive”.
Same read-out and setting: next, `Cc1ccc(-n2ncc3c(=O)n(CC(N)=O)cnc32)cc1C` [JAG-UCB-ef2c0e8e-4, Cc1ccc(-n2ncc3c(=O)n(CC(N)=O)cnc32)cc1C]: “inactive”; `CC(=O)NCCc1c[nH]c2ccc(O)cc12` [JOH-MSK-a63bdd1d-4, CC(=O)NCCc1c[nH]c2ccc(O)cc12]: “inactive”; `O=C(Nc1cccnc1)N(CCN1CCOCC1)c1cccc(Cl)c1` [JOR-UNI-2fc98d0b-6, O=C(Nc1cccnc1)N(CCN1CCOCC1)c1cccc(Cl)c1]: “inactive”.
For the compound `O=S(=O)(Cc1ccccc1F)c1oc(-c2ccc(F)cc2)nc1S(=O)(=O)c1ccccc1` [LON-WEI-4d77710c-2, O=S(=O)(Cc1ccccc1F)c1oc(-c2ccc(F)cc2)nc1S(=O)(=O)c1ccccc1], the results for the IC50 (with SARS-CoV-2 main protease [2]; in experiment [3]; in the experiment with Mpro) were 397 nM, 397 nM and 248 nM, respectively.
In the case of `CCOC(=O)c1c(C)n(S(C)(=O)=O)c2ccc(N(C(=O)c3ccco3)S(C)(=O)=O)cc12` [LON-WEI-4d77710c-8, CCOC(=O)c1c(C)n(S(C)(=O)=O)c2ccc(N(C(=O)c3ccco3)S(C)(=O)=O)cc12], the IC50 is 282 nM in the experiment on SARS-CoV-2 main protease [2], 282 nM in experiment [3] and 214 nM in the experiment with Mpro.
Consider `O=C(Nc1cccc(C(F)(F)F)c1)Nc1ccccc1Sc1ncc([N+](=O)[O-])s1` [LON-WEI-4d77710c-69, O=C(Nc1cccc(C(F)(F)F)c1)Nc1ccccc1Sc1ncc([N+](=O)[O-])s1], for which, in the experiment with SARS-CoV-2 main protease [2], the IC50 was 6260 nM.
As to `N#Cc1cnn(C(=O)c2cccs2)c1C1CC1` [LON-WEI-4d77710c-70, N#Cc1cnn(C(=O)c2cccs2)c1C1CC1], the values for the IC50 (in the experiment with SARS-CoV-2 main protease [2]; in experiment [3]; in the experiment with Mpro) were 3240 nM, 3240 nM and 1800 nM, respectively.
In the case of `Cc1cc(C)c(C#N)c(Sc2ncnc3c2nnn3Cc2ccccc2)n1` [LON-WEI-4d77710c-73, Cc(cc(C)nc1Sc2ncnc3c2nnn3Cc2ccccc2)c1C#N, reference compound], the IC50 in experiment [3] is 649 nM; with Mpro it was 452 nM.
As to `c1ccc(-c2cc(Sc3nnc(-c4cccs4)o3)n3ncnc3n2)cc1` [LON-WEI-4d77710c-76, c1ccc(-c2cc(Sc3nnc(-c4cccs4)o3)n3ncnc3n2)cc1], the figures for the IC50 (in the experiment with SARS-CoV-2 main protease [2]; in experiment [3]; in the experiment with Mpro) were 221 nM, 221 nM and 187 nM, respectively.
Regarding `O=C(Nc1ccccc1)[C@@H](c1ccccc1)N1Cc2ccccc2C1=O` [LON-WEI-b2874fec-15, O=C(Nc1ccccc1)[C@@H](c1ccccc1)N1Cc2ccccc2C1=O], the “label (active / inactive)” value with SARS-CoV-2 main protease [1] is “inactive”.
For `CC1C(O)CCCN1Cc1ccccc1` (centres unmarked) [MAK-UNK-6435e6c2-9, CC1C(O)CCCN1Cc1ccccc1], the “label (active / inactive)” value in the experiment on SARS-CoV-2 main protease [1] was “inactive”.
Consider `COc1ccc(Cl)cc1OCCNC(=O)c1cc(=O)[nH]c2cccc(OC)c12` [MAT-POS-3b536971-1, COc1ccc(Cl)cc1OCCNC(=O)c1cc(=O)[nH]c2cccc(OC)c12], for which the IC50 (in the experiment on SARS-CoV-2 main protease [2]; in experiment [3]) was 874 nM throughout.
For `COc1cccc2[nH]c(=O)cc(C(=O)N3CCN(c4cccc(Cl)c4)CC3)c12` [MAT-POS-3b536971-2, COc(cccc1N2)c1C(C(N(CC1)CCN1c1cccc(Cl)c1)=O)=CC2=O, reference compound], the IC50 in experiment [3] is 4680 nM; in the experiment with Mpro it was 3260 nM.
For the compound `C[C@@H]1C[C@H](C(=O)Nc2cncc3ccccc23)c2cc(Cl)ccc2O1` [MAT-POS-8a69d52e-2, C[C@H](C[C@@H]1C(Nc2cncc3ccccc23)=O)Oc(cc2)c1cc2Cl, reference compound], the results for the IC50 (in experiment [3]; in the experiment with Mpro) were 679 nM and 1670 nM, respectively.
Turning to `O=C(Cc1cc(Cl)cc(Oc2cccnc2)c1)Nc1cncc2ccccc12` [MAT-POS-9ff17035-3, O=C(Cc1cc(Cl)cc(Oc2cnccc2)c1)Nc1cncc2ccccc12, reference compound], the IC50 is 1340 nM in experiment [3] and 1410 nM in the experiment on Mpro.
`O=C(c1cncc2ccccc12)N1CCN(c2cccc(Cl)c2)CC1` [MAT-POS-54c4bf04-3, O=C(c1cncc2ccccc12)N(CC1)CCN1c1cccc(Cl)c1, reference compound]: the figures for the IC50 (in experiment [3]; in the experiment with Mpro) were 1600 nM and 1220 nM, respectively.
Consider `O=C(Cc1cncc2ccccc12)N(CCC1CCCCC1)c1cccc(Cl)c1` [MAT-POS-173a45da-1, O=C(Cc1cncc2ccccc12)N(CCC1CCCCC1)c1cccc(Cl)c1, reference compound], for which the IC50 in experiment [3] is 2110 nM; with Mpro, 1570 nM.
Consider `O=C(c1cc(=O)[nH]c2ccc(F)cc12)N1CCN(S(=O)(=O)c2cccc(Cl)c2)CC1` [MAT-POS-590ac91e-69, O=C(c1cc(=O)[nH]c2ccc(F)cc12)N1CCN(S(=O)(=O)c2cccc(Cl)c2)CC1], for which the “label (active / inactive)” value in the experiment with SARS-CoV-2 main protease [1] was “inactive”.
`O=C(NCC1(C(=O)Nc2cncc3ccccc23)CCOc2ccc(Cl)cc21)C1COCCN1CC(F)(F)F` (centres unmarked) [MAT-POS-932d1078-1, O=C(NCC1(C(=O)Nc2cncc3ccccc23)CCOc2ccc(Cl)cc21)C1COCCN1CC(F)(F)F]: the f_avg_pIC50 in the experiment on SARS-CoV-2 main protease [2] is on record as 4.666.
Consider `COC[C@]1(C(=O)Nc2cncc3ccccc23)CCOc2cc(Cl)c(Cl)cc21` [MAT-POS-932d1078-4, COC[C@]1(C(=O)Nc2cncc3ccccc23)CCOc2cc(Cl)c(Cl)cc21], for which the f_avg_pIC50 in the experiment with SARS-CoV-2 main protease [2] was 5.492.
Regarding `COC[C@@]1(C(=O)Nc2cncc3ccccc23)CCOc2cc(Cl)c(Cl)cc21` [MAT-POS-932d1078-5, COC[C@@]1(C(=O)Nc2cncc3ccccc23)CCOc2cc(Cl)c(Cl)cc21], the f_avg_pIC50 in the experiment on SARS-CoV-2 main protease [2] is 4.772.
On to `O=c1oc(Nc2ccccc2)nc2ccccc12` [MAT-POS-ea426761-13, O=C1OC(Nc2ccccc2)=Nc2c1cccc2, reference compound], for which the IC50 in experiment [3] was 1570 nM; with Mpro, 966 nM.
`CC(C)(C)c1ccc(N(C(=O)c2c[nH]cn2)C(C(=O)NCCc2cccc(F)c2)c2cccnc2)cc1` (centres unmarked) [MAT-POS-f2460aef-3, CC(C)(C)c(cc1)ccc1N(C(C(NCCc1cccc(F)c1)=O)c1cnccc1)C(c1c[nH]cn1)=O, reference compound]: the IC50 in experiment [3] was 292 nM; in the experiment on Mpro, 671 nM.
With `CC(C)(C)c1ccc(N(C(=O)c2ccc(Cl)o2)C(C(=O)NCCc2cccc(F)c2)c2cccnc2)cc1` (centres unmarked) [MAT-POS-f2460aef-4, CC(C)(C)c(cc1)ccc1N(C(C(NCCc1cc(F)ccc1)=O)c1cnccc1)C(c(o1)ccc1Cl)=O, reference compound], the values for the IC50 (in experiment [3]; with Mpro) were 315 nM and 415 nM, respectively.
On to `O=C(Nc1cncc2ccccc12)C1COc2ccc(Cl)cc21` (centres unmarked) [MAT-POS-f7918075-2, O=C(Nc1cncc2ccccc12)C1COc2ccc(Cl)cc21], for which the values for the IC50 (in the experiment with SARS-CoV-2 main protease [2]; in experiment [3]) were 764 nM and 2600 nM, respectively.
`NS(=O)(=O)c1ccc(N2CCC([C@@H]3CCCO3)CC2)cc1` [WAR-XCH-b72a1bbc-18, NS(=O)(=O)c1ccc(N2CCC([C@@H]3CCCO3)CC2)cc1]: the “label (active / inactive)” value with SARS-CoV-2 main protease [1] was “inactive”.
Regarding “O=C1OC(c2cccs2)=N/C1=C\c1ccc(N2CCOCC2)s1 [MAT-POS-fa06b69f-6]”, the IC50 in experiment [3] is 696 nM; in the experiment on Mpro, 701 nM.
